Data: publication PMC4875998, “Liposomal Systems as Nanocarriers for the Antiviral Agent Ivermectin” (International Journal of Biomaterials, 2016)

How the values were obtained:
[1] = Cytotoxicity (methylene blue / MTS assay), CC50; conditions: African green monkey, Vero-118 cells
[2] = Cytotoxicity (methylene blue / MTS assay), CC50; conditions: hamster, BHK cells
[3] = Cytotoxicity (methylene blue / MTS assay), CC50; conditions: mouse, RAW 264.7 cells
Yellow Fever = conditions: in vitro; cited from earlier work
Dengue Fever = tested on: Dengue Fever; design: method as in PMID 22535622; conditions: in vitro; cited from earlier work
Japanese encephalitis = tested on: Japanese encephalitis; design: method as in PMID 22535622; conditions: in vitro; cited from earlier work
[4] = tested on: tick-borne encephalitis viruses; conditions: in vitro; cited from earlier work
Cytotoxicity, CC50 = conditions: human, Half maximal cytotoxic concentration (CC50) Huh-7, Huh-7 cells; value not marked with the 48 h footnote
Huh-7 cells = assay: Cytotoxicity, CC50; conditions: read-out: Half maximal cytotoxic concentration (CC50) Huh-7; Huh-7 cells; value not marked with the 48 h footnote
[5] = Cytotoxicity (methylene blue / MTS assay), CC50; conditions: African green monkey, Vero-F cells
Vero-118 cells = assay: Cytotoxicity (methylene blue / MTS assay), CC50; conditions: cell lines of Figure 6(b) / Table 2 (Vero-118, BHK, RAW)

| SMILES | CC50 at 4 days [1] | CC50 at 4 days [2] | CC50 at 4 days [3] | EC50 (Yellow Fever) | EC50 (Dengue Fever) | EC50 (Japanese encephalitis) | EC50 [4] | CC50 (Cytotoxicity, CC50) | CC50 (Huh-7 cells) | CC50 at 4 days [5] | Times more cytotoxic in comparison to 2-cmc (Vero-118 cells) |
| --- | --- | --- | --- | --- | --- | --- | --- | --- | --- | --- | --- |
| C[C@@]1(O)[C@H](O)[C@@H](CO)O[C@H]1n1ccc(N)nc1=O [2-cmc, 2′-c-Methylcytidine] | 117 µM | 238 µM | 37.6 µM | – | – | – | – | – | – | – | – |
| CC[C@H](C)[C@H]1O[C@]2(CC[C@@H]1C)C[C@@H]1C[C@@H](C/C=C(\C)[C@@H](O[C@H]3C[C@H](OC)[C@@H](O[C@H]4C[C@H](OC)[C@@H](O)[C@H](C)O4)[C@H](C)O3)[C@@H](C)/C=C/C=C3\CO[C@@H]4[C@H](O)C(C)=C[C@@H](C(=O)O1)[C@]34O)O2 [Ivermectin, 22,23-dihydroavermectin B1] | 5.7 µM | 1.5 µM | 0.8 µM | subnanomolar range | submicromolar | submicromolar | submicromolar | 7.3 µM | 10 µM | 23.6 µM | 10 times |
